# Reference: paper PMC10950498, “Ligands of HMG-like dorsal switch protein 1 of Spodoptera exigua leads to mortality in diamondback moth, Plutellaxylostella” (Heliyon, 2024)
# Target: T1, HMG-like dorsal switch protein 1 (rSe-DSP1)
# T1 construct: recombinant DSP1 protein (rSe-DSP1)
# Experiment: thermal shift assay with fitted Kd
# Type: binding, Spodoptera exigua
row,Structure (SMILES),Kd [µM]
1,"N#Cc1ccccc1C(=O)O [CBA, o-Cyanobenzoic acid]",246
2,"CCOc1cc(O)ccc1OC [EMP, 3-Ethoxy-4-Methoxyphenol]",148
3,"O=C1NC(=O)c2ccccc21 [PM, Phthalimide]",197
